The target in data set [1] is PARP6 (Homo sapiens, UniProt Q2NL67). Briefly: PARP family enzymatic activity screening at 10 nM (BPS assay kits). The conditions noted are these: lesser degree than olaparib, rucaparib and other established PARP inhibitors.
In data set [2] the test system is U87MG cells. Kind of data set: Colony formation assay. The conditions noted are these: for effect on clonogenic survival: cold compounds at amounts equivalent to [123I]CC1. The data set is classed as cell-based, Human. On the procedure: (§1) Separate aliquots of cells were irradiated (0-10 Gy, using a ^137Cs irradiator, 0.8 Gy/min). Cells were then washed, a fraction of which was then transferred to 6-well plates containing 2 mL of growth medium, and colony formation was measured two weeks after treatment. Colony numbers were normalized to the number of cells transferred to the plates to obtain plating efficiency, which was in turn normalized to that of untreated cells.
(§2) Following the protocol outlined in part A hereinbefore, colony formation assays were conducted on aliquots of PSN1, U87MG and MDA-MB-231 cells.

In data set [3] the test system is PSN1 cells. Kind of data set: Colony formation assay. The conditions noted are these: for effect on clonogenic survival: PSN1, cold compounds at amounts equivalent to [123I]CC1. In kind it is cell-based. The procedure:
as §1, §2

Data set [4] deals with AsPC1 cells. Briefly: Flow cytometry of nuclear protein expression post [123I]CC1 treatment. The data set is classed as cell-based. The conditions noted are these: 50 kBq. The procedure:
(§3) AsPC1, PSN1 or U87MG (1×10^6 cells/well in 2 mL growth medium) were seeded in 6-well plates and allowed to adhere for at least 20 h. […] Cells were harvested using trypsin-EDTA solution and washed with FACS buffer (PBS, 2% FBS, 1 mM EDTA, 0.1% NaN3) and centrifuged at 500×g for 5 min. Immunostaining was performed using the Foxp3/transcription factor staining buffer set (eBioscience™, USA). Intracellular staining was conducted in permeabilization buffer for 30 min at 4° C. in the dark using the following antibodies separately: AF488-conjugated anti-PARP-1 (1:100; sc-80070), AF594-conjugated anti-PARP-2 (1:100; sc-393310) and AF488-conjugated anti-PARP-3 (1:100; sc-390771) from Santa Cruz Biotechnology Inc. (USA), AF488-conjugated anti-IMPDH2 (1:500; ab-200770) from Abcam plc. (UK), yH2AX (1:1000; JBW301 Merck-Millipore). Fixable viability dye ef780 (1:4000; eBioscience™; 65-0865-14) was used for live/dead discrimination. Fixation of immunostained cells was performed for 15 min at RT. Flow cytometry was conducted using a CytoFLEX flow cytometer (Beckman Coulter, USA), with appropriate laser and filters, positive and negative controls. Data were analyzed using FlowJo™ (Tree Star Inc., BD Biosciences, USA).
(§4) Quantification of AsPC1, PSN1 or U87MG cells was conducted following the protocol outlined in part A hereinbefore. Relative expression of PARP1 and 2 was measured using flow cytometry. γH2AX expression, as a measure for DNA double strand break damage, was assessed in a similar manner.
For orientation: Flow cytometry measures light scatter and fluorescence of single cells or particles in a stream.

For data set [5], the system named is PSN1 cells. The description is as above. In kind it is cell-based. The conditions noted are these: PSN1, 24 h after 1-hour exposure, 50 kBq. The procedure:
as §3, §4

Data set [6] concerns PSN1 xenografts. Kind of data set: Biodistribution of [123I]CC1 in xenograft-bearing mice. In kind it is in vivo. The conditions noted are these: for tumour uptake: 1 h after i.v. 3 MBq. The procedure:
PSN1 cells were harvested using trypsin, washed twice with PBS, and reconstituted in PBS: Matrigel® Matrix High Concentration (1:1). Cell suspensions (PSN1: 2×10^6 […]) were injected subcutaneously in the front right flank of the mice, and allowed to grow to a size of approximately 200 mm^3.
To evaluate the specificity of tumour uptake, an excess of unlabelled rucaparib (0.5 mg) was co-administered as blocking agent. Either after 60 or 120 min after radiolabelled compound injection, animals were euthanised. Selected organs, tissues and blood were removed, and the percentage of the injected dose per gram of tissue (% ID/g) was determined, using a HIDEX automated gammacounter.
(§5) Following the protocol described in part A hereinbefore, PSN1, U87MG, or MDA-MB-231 cells were harvested using trypsin, washed twice with PBS, and reconstituted in PBS: Matrigel® Matrix High Concentration (1:1). Cell suspensions were injected subcutaneously in the hind right flank and allowed to form tumours. […] To evaluate the specificity of tumour uptake, an excess of unlabelled rucaparib (0.5 mg) was co-administered as a blocking agent in some animals. Either 60 or 120 min after radiolabelled compound injection, animals were euthanised (n=3 per group). Selected organs, tissues and blood were removed, and the percentage of the injected activity per gram of tissue (% IA/g) was determined, using a HIDEX automated gammacounter.

Data set [7] is described as follows: Blood clearance by VOI analysis of dynamic imaging. The data set is classed as in vivo. The conditions noted are these: PSN1 xenograft-bearing mice, i.v. 3 MBq; CI95 1.64-2.09 min. On the procedure:
Images were analysed using VOI-based analysis, using PMOD.
In a selected number of animals (n=3), animals were anaesthetised using 2% isoflurane, and dynamic SPECT/CT imaging was performed over 1 h, using a MILabs VECTor4 camera, equipped with an ultra-high-resolution rat/mouse collimator (1.8 mm), followed by a cone-beam CT scan (55 kV, 0.19 mA) for anatomical reference and attenuation correction. Anesthesia was maintained using 2.5% isoflurane throughout the duration of image acquisition. SPECT images were reconstructed using U-SPECT-Rec3.22 software (MILabs, Utrecht, The Netherlands), applying a pixel-based algorithm, ordered subset expectation maximisation (OSEM) with 4 subsets, 4 iterations and 0.6 mm voxel size for lodine-123 (energy window settings 141.3-172.7 keV). Reconstructed SPECT and CT images were viewed and analyzed using PMOD v.3.37 (PMOD Technologies, Zurich, Switzerland).

In data set [8] the test system is AsPC1 cells. Kind of data set: In vitro uptake and specificity of [123I]CC1. The data set is classed as cell-based. The conditions noted are these: for uptake of [123I]CC1 on addition of cold blocker: AsPC1, blocker 100 μM, 45 min before tracer. The procedure: (§6) AsPC1 (1×10^5 cells/well), PSN1 cells (7.5×10^4 cells/well) or U87MG (1×10^5 cells/well) were seeded separately in 24-well plates containing growth medium and allowed to adhere for at least 20 h. Cells were washed and exposed to cold, unlabelled PARP inhibitors (100 μM, in a total of 270 μL growth medium) for 45 min at 37° C. […] Cell culture medium was removed, and cells washed with PBS. Cells were lysed using RIPA buffer ([…] Tris pH 8.0, 1% NP40, 0.5% sodium deoxycholate, 0.1% sodium dodecyl sulphate, and 150 mM sodium chloride) for 15 min at room temperature, and the amount of ^123I in cell lysates was measured using an automated gamma counter (PerkinElmer). […] The amount of ^123I in cell lysates was measured as above.
(§7) AsPC1 (1×10^5 cells/well), PSN1 (7.5×10^4 cells/well) or U87MG (1×10^5 cells/well) were seeded as described in part A hereinbefore. CAPAN-1 cells (7.5×10^4 cells/well) were seeded following the same protocol described in part A hereinbefore.

In data set [9] the test system is PSN1 cells. Briefly: In vitro uptake and specificity of [123I]CC1. The data set is classed as cell-based. The conditions noted are these: for uptake of [123I]CC1 on addition of cold blocker: PSN1, blocker 100 μM, 45 min before tracer. The procedure: as §6, §7
In data set [10] the test system is PSN1 xenografts. Kind of data set: In vivo therapy study. The conditions noted are these: single i.v. 3 MBq. On the procedure: […]. Mice and tumour sizes were monitored daily. Study endpoint was determined based humane endpoints, including a tumour size >1200 mm^3, or weight loss >15%.
[…]. Mice were monitored daily. Tumour sizes were determined by calliper. Study endpoints were based on humane endpoints, including a tumour size >1000 mm^3, or weight loss >15%.

Data set [11] can be described thus: Toxicology: H&E staining of normal tissues. In kind it is in vivo, C57/Bl6 mice. The conditions noted are these: 3 MBq i.v. The source says: Liver, spleen, kidneys and intestines were investigated by an experienced veterinary pathologist and compared to age-matched non-treated control animals.
Tissues were further stained for γH2AX to investigate DNA double strand break damage, and livers were additionally stained for PAS, as a marker for glycogen storage.

In data set [12] the test system is U87MG cells. Briefly: Flow cytometry of nuclear protein expression post [123I]CC1 treatment. In kind it is cell-based, Human. The conditions noted are these: 24 h after 1-hour exposure, 50 kBq. On the procedure: as §3, §4
In data set [13] the test system is U87MG xenografts. Kind of data set: Biodistribution of [123I]CC1 in xenograft-bearing mice. The conditions noted are these: 2 h after i.v. 3 MBq. In kind it is in vivo. On the procedure: as §5
For data set [14], the system named is MDA-MB-231 xenografts. The description is as above. The data set is classed as in vivo. The conditions noted are these: 2 h after i.v. 3 MBq. The procedure:
as §5

In data set [15] the test system is U87MG xenografts. Briefly: In vivo therapy study. Also noted: species or system mice. The conditions noted are these: single i.v. 3 MBq. On the procedure:
(§8) Mice were monitored daily. Tumour sizes were determined by calliper. Study endpoints were based on humane endpoints, including a tumour size >1000 mm^3, or weight loss >15%.

Data set [16] has as its system MDA-MB-231 xenografts. Kind of data set: In vivo therapy study. Also noted: species or system mice. The conditions noted are these: single i.v. 3 MBq. The procedure: as §8
The subject of data set [17] is U87MG cells. Briefly: In vitro uptake and specificity of [123I]CC1. The data set is classed as cell-based, Human. The conditions noted are these: for uptake of [123I]CC1 on addition of cold blocker: blocker 100 μM, 45 min before tracer. On the procedure: as §6, §7
The mark [18] stands for this setting: AsPC1, 24 h after 1-hour exposure.

Entries after “also recorded” stand apart in the source; their conditions may differ.

Sequence of PARP6 (Q2NL67 whole entry): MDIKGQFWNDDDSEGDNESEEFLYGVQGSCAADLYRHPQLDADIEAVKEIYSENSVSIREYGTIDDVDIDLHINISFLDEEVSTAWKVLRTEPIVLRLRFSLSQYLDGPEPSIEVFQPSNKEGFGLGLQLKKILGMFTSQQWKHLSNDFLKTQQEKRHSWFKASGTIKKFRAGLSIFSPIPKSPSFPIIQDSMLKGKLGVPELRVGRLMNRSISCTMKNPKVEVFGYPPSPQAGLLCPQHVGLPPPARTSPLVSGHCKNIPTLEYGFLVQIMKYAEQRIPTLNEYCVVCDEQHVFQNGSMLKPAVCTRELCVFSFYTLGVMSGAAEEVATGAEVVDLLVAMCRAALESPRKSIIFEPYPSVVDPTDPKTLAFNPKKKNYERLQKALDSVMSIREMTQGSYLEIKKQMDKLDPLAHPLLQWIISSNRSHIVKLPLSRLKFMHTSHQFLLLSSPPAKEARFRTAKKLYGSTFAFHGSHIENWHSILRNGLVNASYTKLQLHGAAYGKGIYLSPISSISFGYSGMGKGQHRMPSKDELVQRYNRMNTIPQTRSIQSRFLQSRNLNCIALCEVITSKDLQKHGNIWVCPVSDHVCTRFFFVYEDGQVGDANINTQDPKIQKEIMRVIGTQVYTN

`O=C(c1cc(Cc2n[nH]c(=O)c3ccccc23)ccc1[123I])N1CCN(C(=O)C2CC2)CC1` [CC1]: the “inhibition of PARP6 catalytic activity by a single dose” value in data set [1] is “able to inhibit”. Also, the “effect on clonogenic survival” value in [2] and in data set [3] was “no effect” throughout.

As to `O=C(c1cc(Cc2n[nH]c(=O)c3ccccc23)ccc1[123I])N1CCN(C(=O)C2CC2)CC1` [[^123I]CC1], the PARP1 expression result in data set [4] (setting [18]), in data set [5] and in data set [12] was “increased expression” throughout. The PARP2 expression entry in data set [4] (setting [18]), in [5] and in data set [12] was “increased expression” each time. In addition, the “γH2AX expression (DNA double strand breaks)” value is “increased significantly” in [4] (AsPC1, 24 h after exposure); “increased significantly; also recorded: increased markedly” in [5]; “increased significantly; also recorded: increased markedly” in [12]. The “clearance pattern (high uptake in liver and intestines)” value in [6] (PSN1 xenograft-bearing mice, 3 MBq, 20 GBq/μmol) is given as “hepatobiliary clearance pattern”. Also, the tumour uptake in [6] (PSN-1 xenografts, Part A) came to 0.9±0.06 % ID/g; in data set [6] (PSN-1 xenografts, Part B), 0.9±0.06 % IA/g; in data set [13] it was 0.46±0.01 % IA/g; in data set [14] it was 0.19±0.01 % IA/g. In addition, in data set [6] (PSN-1 xenografts, 24 h after injection), the “amount remaining in tumour” value is 0.033±0.017 % IA/g. Further, the “blood clearance, weighed half-life” value in data set [7] is recorded as 1.86 min. Further, the “time at which cell uptake plateaus” value was determined as 1 h in data set [8] (AsPC1, 37° C.); 1 h in data set [9] (PSN1, 37° C.); 1 h in data set [17] (37° C.). Besides, the cell uptake result was “around 0.3 fmol/cell” in [8] (AsPC1, Part B); “around 0.3 fmol/cell” in data set [9] (PSN1, Part B); “around 0.3 fmol/cell” in data set [17] (Part B). The tumour growth entry in data set [10] (PSN1 xenografts, vs cold unlabelled CC1, p=0.04) is “significant inhibition of tumour growth”. The “gross toxicity (weight loss of the mice)” value in [10] is on record as “without signs of gross toxicity”. The “amount from which clonogenic survival is significantly reduced” value in data set [2] (1 h exposure) is not below 10 Bq. Also, the “clonogenic survival IC50” value is 631±35 Bq in [2] (in 200 μl, 60 min exposure) and 1 kBq/mL in data set [3] (PSN1, 60 min exposure). Besides, the “effect on clonogenic survival” value in [3] is “far less pronounced”. Also, in data set [11], the “shrunken (pyknotic) hepatocytes in liver” value is 0.1-0.2 per field. For the same molecule, the “histopathology, intestines” value in data set [11] (24 h and 28 days) is “minimal proprial infiltration by lymphocytes and plasma cells”. The “histopathology, kidneys” value in data set [11] (24 h and 28 days) is on record as “no observable changes”. For the same molecule, the “histopathology, liver: the one marked effect” value in data set [11] (24 h and 28 days) is “diffuse cytoplasmic pallor/rarefaction”. For the same molecule, in data set [11] (24 h and 28 days), the “histopathology, spleen” value is given as “mild to moderate numbers of hemosiderophages”. Besides, the tumour growth response entry in data set [15] is on record as “responded less than PSN-1 xenografts”; in data set [16] it was “not affected in their growth”.

Take `O=c1c(-c2ccc(O)cc2)coc2cc(O[C@@H]3O[C@H](CO)[C@@H](O)[C@H](O)[C@H]3O)ccc12` [daidzin, reference compound]: the “uptake of [123I]CC1 on addition of cold blocker” value in data set [8], in data set [9] and in data set [17] was “reduced” each time.

For the molecule `COc1c(C)c2c(c(O)c1C/C=C(\C)CCC(=O)OCCN1CCOCC1)C(=O)OC2` [m.mofetil, Mycophenolate mofetil, reference compound], the “uptake of [123I]CC1 on addition of cold blocker” value in [8], in data set [9] and in [17] was “reduced” each time.

As to `O=C(c1cc(Cc2n[nH]c(=O)c3ccccc23)ccc1F)N1CCN(C(=O)C2CC2)CC1` [olaparib, reference compound], the “effect on clonogenic survival” value in data set [2] and in [3] was “no effect” in each case.

For the molecule `CNCc1ccc(-c2[nH]c3cc(F)cc4c3c2CCNC4=O)cc1` [rucaparib, reference compound], the “tumour uptake of [123I]CC1 on co-administration of excess blocker” value in data set [6] (PSN1 xenografts, 0.5 mg blocker, 2 h, P<0.05) is recorded as “significantly reduced tumour uptake”.
